Measurements from publication PMC11820055, “Human Pharmacokinetic Profiling and Comparative Analysis of Mangiferin and Its Monosodium Derivative from Mangifera indica Extracts Using UHPLC-MS/MS with ^1H NMR and MALDI-TOF Confirmation” (Molecules, 2025).
Converted amounts (≈) assume the structure as drawn. Counter-ions that a name gives are not always drawn. Like-named read-outs stand apart in the source and are kept apart here.

Assays:
[1] = Stability of mangiferin in human plasma QC samples; assay type: in vitro ADME; conditions: for Stability (%, Mean ± RSD) Autosampler / Stability (%, Mean ± RSD) Room Temp. / Stability (%, Mean ± RSD) Freeze–Thaw: human plasma QC, n = 6; for Stability (%, Mean ± RSD) Autosampler: autosampler 4 h at 12 °C; for Stability (%, Mean ± RSD) Room Temp.: room temperature for 4 h; for Stability (%, Mean ± RSD) Freeze–Thaw: three cycles of freezing (−80 °C) and thawing (20 °C)
Protocol: Quality control (QC) samples were prepared in the same manner and evaluated at low, medium, and high concentrations: 50, 500, and 1000 ng/mL. Blank plasma samples were also included in the injection series to account for any potential carryover. The stability of mangiferin in human plasma was evaluated by analyzing the same three levels of QC samples (n = 6) after storage at room temperature for 4 h, in the autosampler for 4 h at 12 °C, and after three cycles of freezing (−80 °C) and thawing (20 °C).

[2] = cited from earlier work
[3] = design: method as in PMID 26434292; conditions: human plasma, mangiferin >90% purity, cited from earlier work
[4] = design: method as in earlier work; conditions: pure mangiferin; cited from earlier work
mice = conditions: cited from earlier work
[5] = design: method as in doi:10.1155/2019/9272710; conditions: male Sprague Dawley rats; cited from earlier work
rats = conditions: dose of 400 mg of the purified salt; cited from earlier work

O=c1c2cc(O)c(O)cc2oc2cc(O)c([C@@H]3O[C@H](CO)[C@@H](O)[C@H](O)[C@H]3O)c(O)c12 [Mangiferin]
stability throughout the analytical process ([1]; human plasma QC samples): stable
Stability (%, Mean ± RSD) Autosampler ([1]; 1.000 ng/mL as printed): 101.63 ± 8.50%
Stability (%, Mean ± RSD) Room Temp. ([1]; 1.000 ng/mL as printed): 101.75 ± 8.11%
Stability (%, Mean ± RSD) Freeze–Thaw ([1]; 1.000 ng/mL as printed): 102.64 ± 1.05%
Stability (%, Mean ± RSD) Autosampler ([1]; 50 ng/mL): 109.92 ± 2.77%
Stability (%, Mean ± RSD) Room Temp. ([1]; 50 ng/mL): 103.10 ± 3.66%
Stability (%, Mean ± RSD) Freeze–Thaw ([1]; 50 ng/mL): 108.60 ± 3.87%
Stability (%, Mean ± RSD) Autosampler ([1]; 500 ng/mL): 102.02 ± 8.81%
Stability (%, Mean ± RSD) Room Temp. ([1]; 500 ng/mL): 101.27 ± 9.08%
Stability (%, Mean ± RSD) Freeze–Thaw ([1]; 500 ng/mL): 101.68 ± 0.91%
increase of exposure on inhibition of the transporter P-gp ([2]; pure mangiferin): approximately threefold
Cmax ([3]; 100 mg oral dose): 19.94 ng/mL
Cmax ([3]; 900 mg oral dose): 38.64 ng/mL
aqueous solubility [4]: 111 µg/mL (≈ 263 µM)

O=c1c2cc(O)c(O)cc2oc2cc(O)c([C@@H]3O[C@H](CO)[C@@H](O)[C@H](O)[C@H]3O)c(O)c12 [mangiferin monosodium salt, Monosodium mangiferin]
maximum tolerated dose (MTD) (mice): 12,000 mg/kg
relative bioavailability of the salt vs pure mangiferin based on AUC0–∞ [5]: 5.7 times
safety in rats (rats): generally safe

O=c1c2cc(O)c(O)cc2oc2cc(O)cc(O)c12 [norathyriol]
Tmax ([2]; in vivo): ~15 h
absorption of norathyriol as fraction of the mangiferin dose ([2]; in vivo): approximately 0.1%
